A short description of series [1]: Measurement of dissolution rate (intrinsic dissolution test). Type of series: physicochemical. As to conditions: 7 mm disc, 200 rpm, second fluid containing cholic acid, 37° C. The method, then:
According to the method described in “2.6. Intrinsic dissolution test” on page 231 of Tsutsumi S., Int. J. Pharm., 421 (2011) 230-236, the dissolution rate of the crystals and cocrystals of compound (A) was measured. To be specific, the crystals or cocrystals of compound (A) (20 mg) was pressurized by a hand press tableting machine at 20 MPa for 10 min to give a 7 mm diameter disc. The prepared disc was adhered to the inside of a rotating shaft of the United States Pharmacopeia dissolution test 1 (basket), and inserted, while rotating at 200 rpm, in the second fluid (250 mL) of the Japanese Pharmacopoeia disintegration test containing cholic acid heated to 37° C. The second fluid containing the crystals or cocrystals was collected by 0.5 mL at 1 min intervals, and analyzed by HPLC. From a chromatogram comparison with the standard solution (0.05 mg/mL), the concentration of the crystals or the cocrystals was calculated, and the dissolution rate thereof was calculated.

Series [2] can be described thus: Measurement of solubility (shake-flask method). Type of series: physicochemical. As to conditions: thermodynamic from solid, 37° C., shaken 2 hr. Here is the method:
According to the method described in “Thermodynamic Solubility Measurement by the Shake-Flask Method” on page 1229 of Nakashima S., Chem. Pharm. Bull., 61(12) 1228-1238 (2013), the solubility of the crystals and cocrystals of compound (A) was measured. To be specific, the first fluid (JP1), the second fluid (JP2) and the second fluid containing 20 mM sodium glycochenodeoxycholate (JP2/GCDC) of the Japanese Pharmacopoeia disintegration test were added at 400 μL each to the crystals or cocrystals (0.4 mg) of compound (A), and the mixture was heated to 37° C. under air atmosphere, and shaken by a vortex mixer for 2 hr at 500 rpm. After shaking, the mixture was passed through a 0.45 μm PVDF filter, and the filtrate was analyzed by HPLC. From a chromatogram comparison with the standard solution (0.1 mg/mL), the solubility of the crystals of the single compound and the cocrystals was calculated.

Converted amounts (≈) assume the structure as drawn. Where two headings read alike, the source gives them in different places.

Consider two compounds from patent publication US10836745B2, “Cocrystal, production method thereof, and medicament containing cocrystal” (Takeda Pharmaceutical Company Limited, priority 2015, dated 2020).

The pKa is the negative logarithm of the acid dissociation constant. Lower therefore signals a stronger acid or weaker base.

Experimental for physchem: The base pKa of the compound (A) and the acid pKa of the gentisic acid were measured using a Sirius T3 titrator manufactured by Sirius. The base pKa means an acid dissociation constant from the protonated state, and the acid pKa means the acid dissociation constant of the acid itself.

Regarding `C=CC(=O)N1CC[C@H](Oc2nc(-c3n[nH]c(=O)[nH]3)cc3ccccc23)C1` [compound (A), (S)-3-(1-((1-acryloylpyrrolidin-3-yl)oxy)isoquinolin-3-yl)-1H-1,2,4-triazol-5(4H)-one], the dissolution rate in series [1] was determined as 0.2 μg/mm^2/min. In addition, the solubility at 2 h in series [2] (pH 1.2, simulated gastric fluid, first fluid (JP1) of Japanese Pharmacopoeia disintegration test, read-out: solubility JP1) was 1.5 µg/mL (≈ 4.27 µM); in series [2] (pH 6.8, aqueous buffer, second fluid (JP2) of Japanese Pharmacopoeia disintegration test, read-out: solubility JP2) it was 1.5 µg/mL (≈ 4.27 µM); in series [2] (pH 6.8, fassgf or other biorelevant, second fluid containing 20 mM sodium glycochenodeoxycholate, read-out: solubility JP2/GCDC) it was 35.6 µg/mL (≈ 101 µM).
In “physchem”, `O=C(O)c1cc(O)ccc1O` [gentisic acid] displayed a pKa of 3.23.
